# Reference: patent US10245261B2, “Substituted indol-5-ol derivatives and their therapeutic applications” (NantBioScience, Inc., priority 2013, dated 2019)
# Key:
# [1] = molecular target: Flt1(h) (Homo sapiens, UniProt P17948); experiment: KinaseProfiler kinase assay; assay type: biochemical
# [2] = molecular target: Ret(V804M)(h) (Homo sapiens, UniProt P07949, V804M); experiment: KinaseProfiler kinase assay; assay type: biochemical
# Summary of the method: (§1)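 Steps: compound diluted from DMSO into MOPS/BSA assay buffer; MgATP mix with [γ-33P]ATP added to start; 40 min incubation at room temperature; phosphoric acid stop; filtermat spotting, washing in 50 mM phosphoric acid and methanol; scintillation counting.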
# [3] = molecular target: Ret (V804L)(h) (Homo sapiens, UniProt P07949, V804L); experiment: KinaseProfiler kinase assay; assay type: biochemical
# Summary of the method: as §1
# [4] = molecular target: Abl (M351T)(h) (Homo sapiens, UniProt P00519, M351T); experiment: KinaseProfiler kinase assay; assay type: biochemical
# [5] = test system: human MIAPaCa-2 pancreatic carcinoma xenograft; experiment: Pancreatic carcinoma xenograft in athymic nude mice; assay type: in vivo, mouse; settings: MIAPaCa-2 xenograft; for anti-tumor effect: nude mice, single agent
# Summary of the method: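 Athymic nude mice were implanted s.c. in both flanks with 0.1 ml of 5.0×10^7 MIAPaCa-2 cells/mL. Dosing ran 5 days on/2 off: two cycles for NTW-3475 (25, 50 mg/kg) and Abraxane (20 mg/kg), three cycles for the other compounds (40 mg/kg), each alongside vehicle. Tumours were caliper-measured two to three times weekly.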
# [6] = molecular target: FGFR4(h) (Homo sapiens, UniProt P22455); experiment: KinaseProfiler kinase assay; assay type: biochemical
# [7] = molecular target: Abl (H396P) (h) (Homo sapiens, UniProt P00519, H396P); experiment: KinaseProfiler kinase assay; assay type: biochemical
# [8] = molecular target: Abl (Q252H) (h) (Homo sapiens, UniProt P00519, Q252H); experiment: KinaseProfiler kinase assay; assay type: biochemical
# [9] = molecular target: FGFR2(h) (Homo sapiens, UniProt P21802); experiment: KinaseProfiler kinase assay; assay type: biochemical
# [10] = molecular target: Abl(T315I)(h) (Homo sapiens, UniProt P00519, T315I); experiment: KinaseProfiler kinase assay; assay type: biochemical
# [11] = test system: human MV411 human acute myelogenous leukemia (AML) xenograft; experiment: AML xenograft model in female SCID mice; assay type: in vivo, mouse
# Protocol: The objective of the first study was to evaluate antitumor activities of the novel multiple-kinase inhibitor NTW-3475 against human MV411 human acute myelogenous leukemia (AML) xenograft model in female SCID mice.
# Four or six animals were randomly assigned to each study group. Each animal was injected subcutaneously in the left and right flank area with 0.1 ml of 1.0×10^8 MV411 cells per mL.
# (§2) Each test or control animal was placed on a 5-day on, two-day off for two cycles of vehicle negative control or 25, 50 mg/kg of NTW-3475. Tumor growth was measured with a digital hand held caliper twice weekly (once tumor emerges) prior to the first dosing and then two to three times weekly until euthanized. Animals were weighed prior to tumor cell injection, prior to dosing, two to three times weekly with tumor growth measurements, and prior to euthanasia.
# The objective of the first study was to evaluate antitumor activities of the novel multiple-kinase inhibitor Compounds 11, 68, and 82 against human MV411 human acute myelogenous leukemia (AML) xenograft model in female SCID mice.
# as §2, with “compound.” for “NTW-3475.”
# Chain of FGFR4(h) (P22455 22-802): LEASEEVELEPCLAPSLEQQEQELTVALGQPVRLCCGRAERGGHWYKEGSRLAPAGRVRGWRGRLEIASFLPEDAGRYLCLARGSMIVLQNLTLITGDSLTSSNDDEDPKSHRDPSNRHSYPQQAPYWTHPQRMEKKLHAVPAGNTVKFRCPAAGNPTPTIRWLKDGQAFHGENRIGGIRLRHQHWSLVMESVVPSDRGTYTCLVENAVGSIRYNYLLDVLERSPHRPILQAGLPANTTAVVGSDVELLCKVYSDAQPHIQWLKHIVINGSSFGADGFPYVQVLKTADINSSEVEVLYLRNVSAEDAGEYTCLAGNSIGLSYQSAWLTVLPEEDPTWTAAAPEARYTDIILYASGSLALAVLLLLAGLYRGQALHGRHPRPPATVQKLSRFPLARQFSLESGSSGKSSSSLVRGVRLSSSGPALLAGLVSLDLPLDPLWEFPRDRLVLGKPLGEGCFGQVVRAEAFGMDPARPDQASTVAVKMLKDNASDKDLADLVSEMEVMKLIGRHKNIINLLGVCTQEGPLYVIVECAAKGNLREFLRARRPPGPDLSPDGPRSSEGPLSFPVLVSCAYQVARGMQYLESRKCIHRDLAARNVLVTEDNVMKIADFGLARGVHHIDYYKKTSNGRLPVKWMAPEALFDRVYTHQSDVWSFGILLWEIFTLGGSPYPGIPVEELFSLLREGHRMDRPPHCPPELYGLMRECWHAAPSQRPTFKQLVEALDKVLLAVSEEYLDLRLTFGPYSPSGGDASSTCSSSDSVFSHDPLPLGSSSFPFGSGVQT
# Chain of Ret(V804M)(h) (P07949 29-1114 V804M): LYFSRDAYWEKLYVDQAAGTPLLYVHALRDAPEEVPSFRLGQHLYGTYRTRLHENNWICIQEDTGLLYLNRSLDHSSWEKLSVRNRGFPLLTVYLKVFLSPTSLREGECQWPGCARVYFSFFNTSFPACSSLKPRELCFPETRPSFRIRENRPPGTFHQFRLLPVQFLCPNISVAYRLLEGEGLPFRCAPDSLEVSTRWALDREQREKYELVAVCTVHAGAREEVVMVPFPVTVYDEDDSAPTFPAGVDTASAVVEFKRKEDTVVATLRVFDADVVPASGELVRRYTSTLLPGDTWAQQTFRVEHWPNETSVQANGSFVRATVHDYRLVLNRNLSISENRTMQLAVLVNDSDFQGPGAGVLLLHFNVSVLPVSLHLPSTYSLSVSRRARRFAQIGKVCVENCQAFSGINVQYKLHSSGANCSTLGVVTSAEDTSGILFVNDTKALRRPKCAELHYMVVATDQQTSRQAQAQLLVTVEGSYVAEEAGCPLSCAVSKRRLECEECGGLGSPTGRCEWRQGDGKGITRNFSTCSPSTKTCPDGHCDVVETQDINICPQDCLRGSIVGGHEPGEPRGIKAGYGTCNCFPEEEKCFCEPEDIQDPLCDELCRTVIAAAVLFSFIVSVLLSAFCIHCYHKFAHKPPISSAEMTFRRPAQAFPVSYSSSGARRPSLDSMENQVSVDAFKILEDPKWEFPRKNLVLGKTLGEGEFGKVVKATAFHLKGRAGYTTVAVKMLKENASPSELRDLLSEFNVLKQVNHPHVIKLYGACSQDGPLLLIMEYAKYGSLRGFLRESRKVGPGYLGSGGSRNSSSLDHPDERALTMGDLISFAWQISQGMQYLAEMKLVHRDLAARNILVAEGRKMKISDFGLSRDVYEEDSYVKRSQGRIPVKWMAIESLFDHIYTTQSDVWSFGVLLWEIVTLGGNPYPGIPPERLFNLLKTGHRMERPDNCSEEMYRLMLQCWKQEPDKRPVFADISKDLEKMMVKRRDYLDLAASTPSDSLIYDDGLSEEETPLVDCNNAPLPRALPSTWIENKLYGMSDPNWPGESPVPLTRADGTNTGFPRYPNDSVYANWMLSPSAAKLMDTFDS
# Chain of Ret (V804L)(h) (P07949 29-1114 V804L): as the sequence (P07949 29-1114 V804M) above, with M776L counted along it
# Chain of Flt1(h) (P17948 27-1338): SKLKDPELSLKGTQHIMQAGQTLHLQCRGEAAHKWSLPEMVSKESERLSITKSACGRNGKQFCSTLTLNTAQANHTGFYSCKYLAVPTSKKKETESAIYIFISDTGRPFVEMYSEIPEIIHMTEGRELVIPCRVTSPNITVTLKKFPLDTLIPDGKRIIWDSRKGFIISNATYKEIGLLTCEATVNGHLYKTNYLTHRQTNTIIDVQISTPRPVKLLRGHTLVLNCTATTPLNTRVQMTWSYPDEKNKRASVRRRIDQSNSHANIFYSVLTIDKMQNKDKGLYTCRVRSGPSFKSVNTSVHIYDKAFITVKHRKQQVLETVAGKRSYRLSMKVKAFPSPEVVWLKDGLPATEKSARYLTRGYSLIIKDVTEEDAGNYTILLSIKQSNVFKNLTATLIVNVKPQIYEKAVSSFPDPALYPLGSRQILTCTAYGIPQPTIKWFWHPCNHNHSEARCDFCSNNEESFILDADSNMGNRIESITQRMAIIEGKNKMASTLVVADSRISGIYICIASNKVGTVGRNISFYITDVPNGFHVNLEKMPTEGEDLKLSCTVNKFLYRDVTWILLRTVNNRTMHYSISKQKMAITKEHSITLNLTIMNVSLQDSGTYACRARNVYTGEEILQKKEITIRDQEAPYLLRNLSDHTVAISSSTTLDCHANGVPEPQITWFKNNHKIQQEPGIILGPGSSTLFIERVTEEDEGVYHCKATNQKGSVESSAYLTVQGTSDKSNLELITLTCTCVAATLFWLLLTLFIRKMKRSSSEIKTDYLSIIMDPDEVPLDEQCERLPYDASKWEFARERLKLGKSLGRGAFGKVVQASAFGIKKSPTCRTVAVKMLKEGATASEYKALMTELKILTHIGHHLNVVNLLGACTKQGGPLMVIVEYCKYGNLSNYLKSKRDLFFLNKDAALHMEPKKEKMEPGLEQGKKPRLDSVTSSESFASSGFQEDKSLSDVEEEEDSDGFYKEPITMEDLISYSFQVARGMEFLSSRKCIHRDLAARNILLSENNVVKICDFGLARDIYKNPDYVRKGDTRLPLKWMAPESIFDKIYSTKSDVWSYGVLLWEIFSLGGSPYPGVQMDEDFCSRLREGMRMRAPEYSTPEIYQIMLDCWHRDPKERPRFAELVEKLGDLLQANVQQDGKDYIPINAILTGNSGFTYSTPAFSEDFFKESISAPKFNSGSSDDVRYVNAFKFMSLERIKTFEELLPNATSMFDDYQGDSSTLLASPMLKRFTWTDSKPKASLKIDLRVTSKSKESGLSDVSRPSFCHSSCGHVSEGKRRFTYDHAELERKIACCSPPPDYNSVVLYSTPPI
# Chain of FGFR2(h) (P21802 22-821): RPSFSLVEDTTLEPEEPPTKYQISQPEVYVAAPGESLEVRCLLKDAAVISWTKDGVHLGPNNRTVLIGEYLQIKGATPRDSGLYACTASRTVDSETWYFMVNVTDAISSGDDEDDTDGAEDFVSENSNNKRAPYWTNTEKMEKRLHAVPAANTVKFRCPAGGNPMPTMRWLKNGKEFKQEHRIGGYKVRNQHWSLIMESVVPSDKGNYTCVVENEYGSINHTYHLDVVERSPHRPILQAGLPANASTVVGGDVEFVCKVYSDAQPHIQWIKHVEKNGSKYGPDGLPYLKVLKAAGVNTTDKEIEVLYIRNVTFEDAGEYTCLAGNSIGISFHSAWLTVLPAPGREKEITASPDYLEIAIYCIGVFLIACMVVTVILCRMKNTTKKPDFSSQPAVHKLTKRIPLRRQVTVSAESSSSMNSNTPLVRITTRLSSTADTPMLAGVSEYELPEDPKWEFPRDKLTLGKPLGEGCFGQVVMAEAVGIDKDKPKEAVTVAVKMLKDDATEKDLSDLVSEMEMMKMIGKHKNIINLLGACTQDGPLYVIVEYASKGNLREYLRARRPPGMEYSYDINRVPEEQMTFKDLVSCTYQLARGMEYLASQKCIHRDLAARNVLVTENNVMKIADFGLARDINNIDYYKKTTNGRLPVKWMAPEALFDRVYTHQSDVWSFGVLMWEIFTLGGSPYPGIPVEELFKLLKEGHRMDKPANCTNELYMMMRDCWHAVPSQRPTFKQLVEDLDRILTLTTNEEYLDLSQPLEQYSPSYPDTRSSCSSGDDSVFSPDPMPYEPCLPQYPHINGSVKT
smiles,measurement,setting,value
Cc1cc2c(F)c(Oc3nc(Nc4cc(C5CC5)[nH]n4)cc(N4CCN(C)CC4)n3)ccc2[nH]1 [Compound 10],inhibition at 0.1 µM,[1],100%
same,inhibition at 0.1 µM,[2],96%
same,inhibition at 0.1 µM,[3],103%
same,inhibition at 0.1 µM,[4],99%
same,anti-tumor effect,[5],strong anti-tumor effect
same,inhibition at 0.1 µM,[6],88%
same,inhibition at 0.1 µM,[7],99%
same,inhibition at 0.1 µM,[8],99%
same,inhibition at 0.1 µM,[9],99%
same,inhibition at 0.1 µM,[10],101%
"Cc1cc2c(F)c(Oc3nc(Nc4cc(C5CC5)[nH]n4)cc(N4CCNCC4)n3)ccc2[nH]1 [Compound 11, N-(5-cyclopropyl-1H-pyrazol-3-yl)-2-((4-fluoro-2-methyl-1H-indol-5-yl)oxy)-6-(piperazin-1-yl)pyrimidin-4-amine]",inhibition at 0.1 µM,[1],100%
same,inhibition at 0.1 µM,[2],101%
same,inhibition at 0.1 µM,[3],102%
same,anti-tumor effect,[11],strong anti-tumor effect
same,body weight change,[11],minimal body weight lost
same,inhibition at 0.1 µM,[4],102%
same,anti-tumor effect,[5],strong anti-tumor effect
same,inhibition at 0.1 µM,[6],78%
same,inhibition at 0.1 µM,[7],102%
same,inhibition at 0.1 µM,[8],102%
same,inhibition at 0.1 µM,[9],99%
same,inhibition at 0.1 µM,[10],102%
C/C=C/c1cc(Nc2cc(N3CCN(C)CC3)nc(Oc3ccc4[nH]c(C)cc4c3F)n2)n[nH]1 [Compound 53],IC50,[1]; VEGFR1,3 nM
same,IC50,[2]; Ret(V804M mutation),6 nM
same,IC50,[3]; Ret(V804L mutation),10 nM
same,IC50,[4]; Abl(M351T),0.7 nM
same,IC50,[6]; FGFR4,13 nM
same,IC50,[7]; Abl (H396P),< 0.1 nM
same,IC50,[8]; Abl (Q252H),0.5 nM
same,IC50,[9]; FGFR2,2 nM
same,IC50,[10]; Abl(T315I),0.5 nM
C/C=C/c1cc(Nc2cc(N3CCNCC3)nc(Oc3ccc4[nH]c(C)cc4c3F)n2)n[nH]1 [Compound 68],anti-tumor effect,[11],strong anti-tumor effect
same,body weight change,[11],minimal body weight lost
same,anti-tumor effect in combination with Abraxane,[5],significant antitumor efficacy
same,anti-tumor effect,[5],strong anti-tumor effect
Cc1cc2c(F)c(Oc3nc(Nc4cc(C5CC5)[nH]n4)cc(N4CCNCC4)n3)cc(F)c2[nH]1 [Compound 82],anti-tumor effect,[11],strong anti-tumor effect
same,body weight change,[11],minimal body weight lost
same,anti-tumor effect in combination with Abraxane,[5],significant antitumor efficacy
same,anti-tumor effect,[5],strong anti-tumor effect
C/C=C/c1cc(Nc2cc(N3CCN(CCO)CC3)nc(Oc3cc(F)c4[nH]c(C)cc4c3F)n2)n[nH]1 [Compound 88],anti-tumor effect,[5],strong anti-tumor effect
C/C=C/c1cc(Nc2cc(N3CCN(C)CC3)nc(Oc3cc(F)c4[nH]c(C)cc4c3F)n2)n[nH]1 [NTW-3456],anti-tumor effect,[11],significant anti-tumor activity
same,anti-tumor effect in combination with Abraxane,[5],significant anti-tumor activity
same,anti-tumor effect,[5],some anti-tumor activity
same,kinase inhibition of T315I abl mutant,[10],inhibits
